Tested on: nitrification in soil (microbial biomass)
Experiment: Incubation experiment: measurement of the nitrification-inhibiting effect in soil (NH4—N recovery)
Conditions: overall summary of the experiments
Experimental: In all treatments the same nitrogen as well as the same AI (active ingredient) amounts were applied. In case of the two tested nitrification inhibitors DMPP and DMPSA it was 1% NI (nitrification inhibitor) related to the sum of NH2—N and NH4—N of the corresponding carrier fertilizer. In case of physical mixtures, in which only one part of the fertilizers was treated with a NI, the concentrations of the corresponding AI were higher so that the overall amounts of NI were the same as in the control treatment.
100 g soil (incubated at 20° C. for two weeks to activate the microbial biomass) is filled into 500 ml plastic bottles (e.g. soil sampled from the field) and is moistened to 50% water holding capacity. The fertilizers are treated with the respective products containing the compositions and mixtures of the invention in the appropriate concentration.
Granules of the treated fertilizers are evenly distributed to the soil. The amount of fertilizer which is applied corresponds to 10 mg of reduced nitrogen per bottle.
The bottles are capped loosely to allow air exchange. The bottles are then incubated at 20° C. for 28 days.
For analysis, 300 mL of a 1% K2SO4-solution is added to the bottle containing the soil and shaken for 2 hours in a horizontal shaker at 150 rpm. […] The ammonium contents of the filtrates are analyzed with an autoanalyzer at 550 nm (Merck, AA11).

## 3,4-dimethyl pyrazole phosphate and/or 4,5-dimethyl pyrazole phosphate [DMPP]
  inhibition of nitrification (in words): sufficiently be inhibited

## 2-(3,4-dimethyl-1H-pyrazol-1-yl)succinic acid and/or 2-(4,5-dimethyl-1H-pyrazol-1-yl)succinic acid [DMPSA]
  inhibition of nitrification (in words): sufficiently be inhibited
